Experimental data reported in paper PMC7822874, “Chemoprotective antimalarials identified through quantitative high-throughput screening of Plasmodium blood and liver stage parasites” (Scientific Reports, 2021).

These compounds were tested on Plasmodium falciparum Dd2 asexual blood stage parasites (assay: microbe, parasite or virus in culture). Conditions: Plasmodium falciparum, DD2, Erythrocyte, 72 h; read-out: AC50.
Set-up: species or system Plasmodium falciparum Dd2 in human erythrocytes; single determination (one 11-point concentration-response curve)

SMILES	AC50
COc1ccc(-c2cc(-c3cccc(OC)c3OC)cn3cncc23)cc1 [NCGC00412191-01]	6.85 µM
COc1ccc(-c2cc(-c3cccc(NC(C)=O)c3)cn3cncc23)cn1 [NCGC00412201-01]	21.7 µM
COc1ccc(NC(=O)Cc2c[nH]c3ncc(-c4cnn(C)c4)cc23)cn1 [NCGC00412250-01]	12.2 µM
C[S+](=O)([O-])c1cccc(-c2cnc3[nH]cc(CC(=O)NCc4cccnc4)c3c2)c1 [NCGC00412364-01]	9.68 µM
COc1ccc(-c2cnc3[nH]cc(CC(=O)NCc4cccnc4)c3c2)cn1 [NCGC00412433-01]	6.85 µM
COc1ccc(-c2cnc3[nH]cc(CC(=O)NCc4cccnc4)c3c2)cc1OC [NCGC00412448-01]	1.53 µM
COc1ccccc1Nc1cnc2ccc(-c3ccc(F)cc3)nn12 [NCGC00412490-01]	6.85 µM
COc1ccc(-c2ccc3ncc(Nc4cccc(C(F)(F)F)c4)n3n2)cn1 [NCGC00412495-01]	12.2 µM
c1ccc(-c2ccc3ncc(Nc4cccnc4)n3n2)cc1 [NCGC00412518-01]	4.85 µM
OCc1cccc(-c2ccc3ncc(Nc4ccc(OCCN5CCCC5)cc4)n3n2)c1 [NCGC00412543-01]	3.44 µM
COc1ccccc1-c1ccc2ncc(Nc3ccc4[nH]ccc4c3)n2n1 [NCGC00412550-01]	4.33 µM
Fc1ccc(-c2ccc3ncc(Nc4ccnc(N5CCOCC5)c4)n3n2)cc1 [NCGC00412558-01]	1.72 µM
COc1cncc(Nc2cnc3ccc(-c4ccc(OC)c(OC)c4)nn23)c1 [NCGC00412563-01]	1.22 µM
COc1cncc(Nc2cnc3ccc(-c4ccc(F)cc4)nn23)c1 [NCGC00412595-01]	3.06 µM
c1ccc(Oc2ccc(Nc3cnc4ccc(N5CCOCC5)nn34)cc2)cc1 [NCGC00412601-01]	7.69 µM
COc1ccc(-c2ccc3ncc(Nc4ccnc(N5CCOCC5)c4)n3n2)cn1 [NCGC00412623-01]	4.85 µM
O=C(c1ccc(-c2ncc3cnc(-c4ccccc4)cn23)cc1)N1CCc2cccnc21 [NCGC00413975-01]	17.2 µM
O=C(c1cccc(O)c1)N1CC=C(c2cnc3cnc(-c4ccccc4)cn23)CC1 [NCGC00414040-01]	9.68 µM
Cc1ccccc1-c1nccn2c(C3CN(Cc4ccccc4O)C3)ncc12 [NCGC00414046-01]	5.44 µM
COCCCNC(=O)C1(C)CN(C)Cc2ccc(Nc3ccccc3)nc21 (stereo not drawn) [NCGC00414477-01]	6.85 µM
COCCN1Cc2ccc(NCC(C)C)nc2C(C)(C(=O)Nc2ccncc2)C1 (stereo not drawn) [NCGC00414482-01]	21.7 µM
COc1cccc(Nc2ccc3c(n2)C(C)(C(=O)NC2CCC2)CN(C)C3)c1 (stereo not drawn) [NCGC00414508-01]	15.3 µM
COc1cccc(Nc2ccc3c(n2)C(C)(C(=O)NCC2CC2)CN(C)C3)c1 (stereo not drawn) [NCGC00414531-01]	12.2 µM
COc1cccc(Nc2ccc3c(n2)C(C)(C(=O)N2CCN(C)CC2)CN(C)C3)c1 (stereo not drawn) [NCGC00414535-01]	15.3 µM
COc1cccc(Nc2ccc3c(n2)C(C)(C(=O)N2CCCC2)CN(C)C3)c1 (stereo not drawn) [NCGC00414569-01]	17.2 µM
COc1cccc(NC(=O)C2(C)CN(C)Cc3ccc(N4CCOCC4)nc32)c1 (stereo not drawn) [NCGC00414578-01]	3.85 µM

SMILES	AC50
CN1Cc2ccc(Nc3ccccc3)nc2C(C)(C(=O)NCc2ccc3c(c2)OCO3)C1 (stereo not drawn) [NCGC00414588-01]	13.7 µM
Cn1cnc2ccc(-c3cccc(O)c3)nc2c1=O [NCGC00414672-01]	6.11 µM
O=C1c2c(nc(CN3CCCC(CO)C3)n2Cc2ccccc2)NCCN1Cc1cccc(Cl)c1 (stereo not drawn) [NCGC00415148-01]	15 µM
COc1ccc(NC(=O)c2nnn3c2CN(Cc2cccc(Cl)c2)C(=O)CC3)c(C)c1 [NCGC00415347-01]	2.17 µM
CC1(c2ccccc2)N(Cc2ccccc2)C(=O)OC12CCN(Cc1cccnc1)CC2 (stereo not drawn) [NCGC00415410-01]	15.3 µM
CC1(c2ccccc2)N(Cc2cccnc2)C(=O)OC12CCN(C(=O)Cc1ccc(Cl)cc1)CC2 (stereo not drawn) [NCGC00415462-01]	13.3 µM
COc1cccc(CN2C(=O)OC3(CCN(Cc4c[nH]c5ccccc45)CC3)C2(C)c2cccnc2)c1 (stereo not drawn) [NCGC00415482-01]	8.41 µM
Cc1nc(CN2C(=O)OC3(CCN(C(=O)Cc4ccc5c(c4)OCO5)CC3)C2(C)c2ccccc2)cs1 (stereo not drawn) [NCGC00415487-01]	2.11 µM
COc1ccc(C(=O)N2CCC3(CC2)OC(=O)N(Cc2ccc(O)cc2)C3(C)c2ccccc2)cn1 (stereo not drawn) [NCGC00415507-01]	6.68 µM
COc1ccccc1C(=O)N1CCC2(CC1)OC(=O)N(CCOc1ccccc1)C2(C)c1cccnc1 (stereo not drawn) [NCGC00415508-01]	9.44 µM
COc1cccc(CN2C(=O)OC3(CCN(Cc4ccc5c(c4)CCO5)CC3)C2(C)c2cccnc2)c1 (stereo not drawn) [NCGC00415555-01]	4.73 µM
COc1cccc(CN2C(=O)OC3(CCN(Cc4ccccc4OC)CC3)C2(C)c2cccnc2)c1 (stereo not drawn) [NCGC00415564-01]	4.73 µM
COc1cncc(CN2CCC3(CC2)OC(=O)N(Cc2ccc(O)cc2)C3(C)c2ccccc2)c1 (stereo not drawn) [NCGC00415566-01]	9.44 µM
CC1(c2ccccc2)N(Cc2ccccc2)C(=O)OC12CCN(Cc1cccc(O)c1)CC2 (stereo not drawn) [NCGC00415604-01]	8.41 µM
COc1cccc(CN2CCC3(CC2)OC(=O)N(Cc2ccccc2)C3(C)c2ccccc2)c1 (stereo not drawn) [NCGC00415605-01]	15 µM
Cc1nc(CN2C(=O)OC3(CCN(C(=O)c4ccc(Oc5ccccc5)cc4)CC3)C2(C)c2ccccc2)cs1 (stereo not drawn) [NCGC00415614-01]	13.3 µM
COc1ccccc1C(=O)N1CCC2(CC1)OC(=O)N(Cc1ccccc1C#N)C2(C)c1ccccc1 (stereo not drawn) [NCGC00415624-01]	15 µM
CC1(c2ccccc2)N(Cc2cccnc2)C(=O)OC12CCN(Cc1ccccc1)CC2 (stereo not drawn) [NCGC00415633-01]	17.2 µM
CC1(c2ccccc2)N(Cc2ccccc2F)C(=O)OC12CCN(Cc1cccc(O)c1)CC2 (stereo not drawn) [NCGC00415649-01]	6.68 µM
CC1(c2ccccc2)N(Cc2ccc(O)cc2)C(=O)OC12CCN(Cc1c[nH]c3ccccc13)CC2 (stereo not drawn) [NCGC00415668-01]	5.31 µM
CN1CCN(Cc2nnc(C(=O)N3CCC[C@@H]3c3ccc(Br)cc3)n2Cc2ccccc2)CC1 [NCGC00415715-01]	7.5 µM
O=C(c1nnc(CN2CCC(F)(F)CC2)n1-c1cccnc1)N1CCC[C@@H]1C(c1ccccc1)c1ccccc1 [NCGC00415758-01]	15 µM
Cn1ccc(NCc2nnc(C(=O)N3CCC[C@@H]3C(c3ccccc3)c3ccccc3)n2-c2ccccc2)n1 [NCGC00415774-01]	1.33 µM
O=C(c1nnc(CNc2ccncc2)n1-c1ccccc1)N1CCC[C@@H]1C(c1ccccc1)c1ccccc1 [NCGC00415781-01]	10.6 µM
CC(=O)Nc1cccc(OCc2nnc(C(=O)N3CCC[C@@H]3C(c3ccccc3)c3ccccc3)n2-c2ccccc2)c1 [NCGC00415783-01]	10.6 µM
O=C(c1nnc(COc2ccc(OC(F)(F)F)cc2)n1-c1ccccc1)N1CCC[C@@H]1C(c1ccccc1)c1ccccc1 [NCGC00415795-01]	8.41 µM

SMILES	AC50
O=[S+]([O-])(c1ccccc1)N1CC(CNc2cccnc2)C2(CN(c3ccccc3)C2)C1 (stereo not drawn) [NCGC00415961-01]	21.7 µM
CN(C)Cc1cn2c(=O)n(C)cc(-c3cccc(C(F)(F)F)c3)c2n1 [NCGC00416418-01]	21.7 µM
Cc1noc(C)c1-c1nccc2c(=O)cc(N(C)c3ccccc3)oc12 [NCGC00416678-01]	17.2 µM
O=c1cc(-c2cccnc2)oc2c(-c3ccccc3Oc3ccccc3)nccc12 [NCGC00416761-01]	17.2 µM
COc1cc2c(cc1Oc1ccccc1)NC(=O)C21CCN(c2cnccn2)CC1 [NCGC00416813-01]	2.17 µM
COc1cc2c(cc1OC1CCCC1)NC(=O)C21CCN(Cc2nccs2)CC1 [NCGC00416850-01]	19.3 µM
COc1cc2c(cc1OC1CCCC1)NC(=O)C21CCN(C(=O)c2cccc(C#N)c2)CC1 [NCGC00416876-01]	8.41 µM
COc1cc2c(cc1OC1CCCC1)NC(=O)C21CCN(c2cnccn2)CC1 [NCGC00416906-01]	7.69 µM
COc1cc2c(cc1OCC1CC1)NC(=O)C21CCN(c2nccs2)CC1 [NCGC00416908-01]	21.7 µM
COc1cc2c(cc1OCc1ccccc1)NC(=O)C21CCN(c2ccccn2)CC1 [NCGC00416940-01]	15.3 µM
CN1CCOc2c(C(=O)NCc3cccnc3)cc(-c3cccc4[nH]ccc34)cc21 [NCGC00416962-01]	8.63 µM
Cc1cc(C)c(CNC(=O)c2cc(-c3cccnc3)cc3c2OCCN3C(C)C)c(=O)[nH]1 [NCGC00416981-01]	19.3 µM
COc1ncc(-c2cc(C(=O)NCc3c(C)cc(C)[nH]c3=O)c3c(c2)N(C(C)C)CCO3)cn1 [NCGC00416983-01]	9.44 µM
CN(C)CCNC(=O)c1cc(-c2ccccc2F)cc2c1OCCN2Cc1cccnc1 [NCGC00416987-01]	6.85 µM
COc1ccc(-c2cc(C(=O)NCc3c(C)cc(C)[nH]c3=O)c3c(c2)N(C)CCO3)cn1 [NCGC00417013-01]	19.3 µM
CC(=O)Nc1cc(-c2cc(C(=O)NCCc3c[nH]cn3)c3c(c2)N(C)CCO3)ccn1 [NCGC00417032-01]	13.7 µM
CC(=O)Nc1cccc(-c2cc(C(=O)NCc3c(C)cc(C)[nH]c3=O)c3c(c2)N(C(C)C)CCO3)c1 [NCGC00417042-01]	9.44 µM
CNC(=O)c1cc(-c2ccnc(N3CCOCC3)c2)cc2c1OCCN2Cc1cccnc1 [NCGC00417111-01]	8.41 µM
Cc1cc(C)c(CNC(=O)c2cc(-c3ccnn3C)cc3c2OCCN3C(C)C)c(=O)[nH]1 [NCGC00417130-01]	15.3 µM
COc1ncccc1-c1nc(-c2c(C)noc2C)cc2c1cc(-c1ccccc1)n2C [NCGC00417163-01]	13.7 µM
Cc1noc(C)c1-c1cc2c(cc(-c3ccccc3)n2C)c(-c2cccnc2)n1 [NCGC00417168-01]	10.9 µM
Cc1noc(C)c1-c1cc2c(cc(C)n2CCN(C)C)c(-c2cccc(O)c2)n1 [NCGC00417178-01]	17.2 µM
Cc1noc(C)c1-c1cc2c(cc(C)n2CCN(C)C)c(Nc2ccn(C)n2)n1 [NCGC00417199-01]	13.7 µM
COc1cc(-c2nc(-c3c(C)noc3C)cc3c2cc(C)n3CCN(C)C)ccn1 [NCGC00417201-01]	17.2 µM
COc1cccc(-c2nc(-c3c(C)noc3C)cc3c2cc(C)n3CCN(C)C)c1 [NCGC00417217-01]	17.2 µM
Cc1noc(C)c1-c1cc2cc(CN(C)C)oc2c(NCCc2ccccc2)n1 [NCGC00417471-01]	13.7 µM
